The source of these data is ChEMBL document CHEMBL1127242, “Conformationally constrained HIV-1 protease inhibitors” (Bioorg Med Chem Lett, 1994).

The target of the experiment is Human immunodeficiency virus type 1 protease (Human immunodeficiency virus 1, UniProt Q72874). As to the kind of experiment: Compound was tested for inhibitory activity against Human immunodeficiency virus (HIV-1) protease.

The structures appear in SMILES notation.

In turn, `C[C@@H]1CC[C@@H](O)[C@H]1N1CC[C@@](Cc2ccccc2)(C[C@H](O)[C@H](Cc2ccccc2)NC(=O)OC(C)(C)C)C1=O` showed an IC50 of 14 nM. The value for `CC(C)(C)OC(=O)N[C@@H](Cc1ccccc1)[C@@H](O)C[C@]1(Cc2ccccc2)CCN([C@@H]2CS(=O)(=O)Cc3ccccc32)C1=O` was 17 nM; that for `CC(C)[C@@H](CO)N1CC[C@@](Cc2ccccc2)(C[C@H](O)[C@H](Cc2ccccc2)NC(=O)OC(C)(C)C)C1=O` was 35 nM; that for `O=C(N[C@@H](Cc1ccccc1)[C@@H](O)C[C@@H](Cc1ccccc1)C(=O)N[C@H]1c2ccccc2C[C@H]1O)O[C@H]1CCOC1` was 0.06 nM. The value for `CC(C)(C)OC(=O)N[C@@H](Cc1ccccc1)[C@@H](O)C[C@]1(Cc2ccccc2)CCN([C@@H]2CSCc3ccccc32)C1=O` was 111 nM. For `O=C(N[C@@H](Cc1ccccc1)[C@@H](O)C[C@]1(Cc2ccccc2)CCN([C@@H]2CS(=O)(=O)Cc3ccccc32)C1=O)O[C@H]1CCOC1`, the IC50 worked out at 1.8 nM. For `CC(C)(C)OC(=O)N[C@@H](Cc1ccccc1)[C@@H](O)CC1(Cc2ccccc2)CCN([C@H]2c3ccccc3C[C@H]2O)C1=O` (single isomer, unassigned) the value was 37 nM.
